Measurements taken from patent US11246929B2, “Combination of a protein kinase inhibitor and an additional chemotherapeutic agent” (Merck Patent GmbH, priority 2016, dated 2022).

Test system: MO59K (DNA-PK wild type)
Experiment: AlamarBlue viability assay
Type: cell-based, human
Conditions: compound incubation for 72 h
Method: Details of the assay protocol and material utilized are set forth below.
After 24 h incubation at 37° C.
At the end of the compound incubation period 20 μl AlamarBlue reagent was added per well and the 96-well plates were incubated further up to seven hours. Absorption was determined at 540 nm by using Tecan Reader Connect and Magelan 7.
0% effect=cells treated with DMSO; −100% effect=no cells

[2H]c1nc(C)nc([2H])c1-c1cc(NC[C@@H](C)c2cccc3c(C(N)=O)ccnc23)ncn1 [VX984, 8-[(1S)-2-[[6-(4,6-dideuterio-2-methylpyrimidin-5-yl)pyrimidin-4-yl]amino]-1-methylethyl]quinoline-4-carboxamide]
potentiation of etoposide, Compound 1 in comparison to VX-984: requires higher concentrations of etoposide to arrive at the same % effect
